Data from article PMC8520055 (Asian Journal of Pharmaceutical Sciences, 2021).
Read-outs that look alike come from different tables or passages of the source.

Key:
[1] = Pharmacokinetics of ATV; type: in vivo, rats; settings: for Plasma concentrations vs control rats: ATV 10 mg/kg p.o., rats treated with RIF 30 mg/kg i.v.
[2] = Pharmacokinetics of ATV; type: in vivo, rats; settings: for metabolite plasma concentrations vs control: ATV 10 mg/kg p.o., at 7.5, 15, 30 and 60 min after KTZ 20 mg/kg i.v.
[3] = plasma 4β-HC; cited from earlier work
[4] = Hepatic disposition of ATV and GCDCA-S in rats with ANIT-induced liver injury; type: in vivo; settings: ANIT-induced liver injury (Fig. S15)
[5] = tested on: HepaRG cells; experiment: Metabolism of ATV and cholesterol in HepaRG cells in presence of KTZ; type: cell-based, human; settings: KTZ 10 µM, HepaRG cells (Fig. S14)
[6] = tested on: Cyp3a; experiment: Endogenous Cyp3a markers; type: in vivo, rats
[7] = tested on: Oatps; experiment: Hepatic uptake of ATV and GCDCA-S after 7 d oral RIF or KTZ; type: in vivo, rats; settings: for hepatic uptake of ATV: inhibitor p.o. 7 d (RIF 30 mg/kg, KTZ 20 mg/kg), ATV 10 mg/kg p.o., 30 min
[8] = Liver function; type: in vivo, rats
[9] = Plasma and hepatic concentration of KTZ after a single oral dose; type: in vivo, rats; settings: for concentration at 1 h: rat, plasma, po; for Hepatic concentration: 1 h
[10] = tested on: Cyp3a; experiment: Plasma GCDCA-S, cholesterol and 4β-HC after intravenous KTZ
[11] = Plasma concentration of RIF after a single oral dose; type: in vivo, rats; settings: rat
[12] = tested on: Oatps; experiment: Plasma GCDCA-S, cholesterol and 4β-HC after intravenous RIF; type: in vivo, rats
[13] = tested on: Oatps; experiment: Endogenous substrates of Oatps; type: in vivo, rats
[14] = tested on: Oatps; experiment: Reversibility of RIF inhibition of GCDCA-S uptake; type: in vivo, rats; settings: RIF 30 mg/kg p.o. 7 d, then 7-d washout
[15] = tested on: Oatps; settings: read-out: IC50 for Oatps in vitro; cited from earlier work
[16] = tested on: HepaRG cells; experiment: Uptake of ATV and GCDCA-S in HepaRG cells in presence of RIF; type: cell-based; settings: Homo sapiens
[17] = cited from earlier work
[18] = KTZ single oral dose 20-80 mg/kg
[19] = RIF 30-120 mg/kg single oral dose
[20] = RIF 30-120 mg/kg single oral dose, 2 h

In the case of `CC(C)c1c(C(=O)Nc2ccccc2O)c(-c2ccccc2)c(-c2ccc(F)cc2)n1CCC(O)CC(O)CC(=O)O` (stereo not drawn) [2-OH ATV, 2‑hydroxy-atorvastatin], the “Plasma concentrations vs control rats” value [1] is reported as “markedly higher” and the “metabolite plasma concentrations vs control” value [2] is reported as “significantly decreased”.
With `CC(C)c1c(C(=O)Nc2ccc(O)cc2)c(-c2ccccc2)c(-c2ccc(F)cc2)n1CC[C@@H](O)C[C@@H](O)CC(=O)O` [4-OH ATV, 4‑hydroxy-atorvastatin] the “Plasma concentrations vs control rats” value [1] was “markedly higher” and the “metabolite plasma concentrations vs control” value [2] was “significantly decreased”.
In the case of `CC(C)CCC[C@@H](C)[C@H]1CC[C@H]2[C@@H]3CC=C4[C@@H](O)[C@@H](O)CC[C@]4(C)[C@H]3CC[C@]12C` [4β-HC, 4β-hydroxycholesterol], the half-life [3] is listed as about 17 days.
With `S=C=Nc1cccc2ccccc12` [ANIT, α-naphthylisothiocyanate] the “liver mRNA level of Oatp” value [4] was “decreased”.
In the case of `CC(=O)N1CCN(c2ccc(OCC3COC(Cn4ccnc4)(c4ccc(Cl)cc4Cl)O3)cc2)CC1` (stereo not drawn) [KTZ, ketoconazole], the “degradation ATV to 2-OH ATV and 4-OH ATV” value [5] is reported as “inhibited”, the “formation of 4β-HC” value [5] is reported as “did not affect” and the “blood concentration of 6β-HC” value ([6]; KTZ multiple-dose 7 d) is reported as “increased”. For the same compound, the “plasma concentrations of 4β-HC” value ([6]; KTZ repeated oral dose 7 d, 20-80 mg/kg) was “markedly elevated”, the “hepatic 6β-HC levels” value [6, 18] was “dose-dependently decreased” and the “plasma 6β-HC levels” value [6, 18] was “not been influenced”. The “Hepatic 4β-HC levels” value ([6]; KTZ single oral dose 20-80 mg/kg (Fig. S5)) was “significantly increased”, the “hepatic uptake of ATV” value [7] was “minimally impacted” and the “liver function (serum AST, ALT, ALP)” value ([8]; KTZ 20, 40, 80 mg/kg single or multiple oral dose (Fig. S2)) was “not affect liver function”. For the same compound, the “KTZ level (plasma)” value ([2]; after single i.v. KTZ 20 mg/kg, over 0-360 min (Fig. S10)) was “above 1.5 µM”, the concentration at 1 h ([9]; 20 mg/kg) was 23.9 µM and the concentration at 1 h ([9]; 40 mg/kg) was 31.4 µM. The concentration at 1 h ([9]; 80 mg/kg) was 49.6 µM, the Hepatic concentration ([9]; single oral dose 20 mg/kg) was 87.1 µmol/kg tissue and the Hepatic concentration ([9]; single oral dose 40 mg/kg) was 119.2 µmol/kg tissue. For the same compound, the Hepatic concentration ([9]; single oral dose 80 mg/kg) was 160.6 µmol/kg tissue, the “plasma levels of cholesterol and its metabolite 4β-HC” value ([10]; after intravenous KTZ 20 mg/kg) was “not affected” and the “plasma concentrations of GCDCA-S” value ([10]; after intravenous KTZ 20 mg/kg (Fig. S9)) was “not changed”.
In the case of `CO[C@H]1/C=C/O[C@@]2(C)Oc3c(C)c(O)c4c(O)c(c(/C=N/N5CCN(C)CC5)c(O)c4c3C2=O)NC(=O)/C(C)=C\C=C\[C@H](C)[C@H](O)[C@@H](C)[C@@H](O)[C@@H](C)[C@H](OC(C)=O)[C@@H]1C` [RIF, rifampicin], the concentration at 2 h ([11]; 30 mg/kg) is reported as 11.6 µM, the concentration at 2 h ([11]; 60 mg/kg) is reported as 22.4 µM and the concentration at 2 h ([11]; 120 mg/kg) is reported as 26.5 µM. For the same compound, the “plasma RIF level” value ([1]; after single i.v. RIF 30 mg/kg, over 0-360 min (Fig. S8)) was “above 5.5 µM”, the “plasma concentrations of GCDCA-S” value ([12]; after intravenous RIF 30 mg/kg) was “significantly increased” and the “plasma concentration of cholesterol and 4β-HC” value ([12]; after intravenous RIF 30 mg/kg (Fig. S7)) was “did not affect”. The “hepatic uptake of CP I/III” value [13, 19] was “did not inhibit”, the “plasma concentrations of CP I/III” value [13, 19] was “did not affect” and the “biosynthesis of GCDCA-S from GCDCA in the liver” value ([13]; RIF 30-120 mg/kg single oral dose (Fig. S3)) was “did not affect”. For the same compound, the “hepatic uptake ratio of CA, GCA, GUDCA, TCDCA, TUDCA, THDCA, TLCA and GCDCA-S” value [13, 20] was “decreased”, the “plasma CA, CDCA, HDCA, GCA, GUDCA, TCDCA, TDCA, THDCA and GCDCA-S levels” value [13, 20] was “dose-dependently increased” and the “hepatic uptake of GCDCA-S” value ([7]; RIF 30 mg/kg p.o. 7 d) was “decreased”. The “plasma concentration of GCDCA-S” value ([7]; RIF 30 mg/kg p.o. 7 d) was “significantly increased”, the “hepatic uptake of ATV” value [7] was “greatly attenuated” and the “liver function (serum AST, ALT, ALP)” value ([8]; RIF 30, 60, 120 mg/kg single oral dose (Fig. S2)) was “not affect liver function”. The “effect on the hepatic uptake of GCDCA-S after washout” value [14] was “fully reversed”, the “plasma GCDCA-S level vs vehicle-treated rats after washout” value [14] was “not significant different” and the IC50 [15] was 0.14 to 1.7 µM. The IC50 ([16]; read-out: IC50 for uptake of ATV) was 1 µM, the IC50 ([16]; read-out: IC50 for uptake of GCDCA-S) was 9.8 µM and the plasma unbound fraction [17] was 0.265.
